± gives the standard deviation of the averaged measurements.
Key:
Assay in all cases: level (log10 ratio to DMSO vehicle control); higher = higher biomarker level / cell amount than vehicle control
Conditions in all cases: in DMSO
[1] = compound: O=C(O)C(F)(F)OC(F)(F)C(F)(F)OC(F)(F)C(=O)O [Perfluoro-3,6-dioxaoctane-1,8-dioic acid]
Description: (§1)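 BioMAP Diversity Plus panel of 12 human primary cell co-culture systems (3C, 4H, LPS, SAg, BT, BF4T, BE3C, CASM3C, HDF3CGF, KF3CT, MyoF, Mphg). Compounds were added 1 h before stimulation and left for 24 h (MyoF 48 h; BT 72 h for soluble read-outs or 6 d for IgG). Biomarkers were read by ELISA, cytotoxicity by SRB, PBMC viability and proliferation by Alamar Blue. Each well value was divided by the mean of 8 DMSO control wells on the same plate and log10 transformed; duplicate blinded samples were tested at 4 concentrations.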

[2] = compound: FC(F)C(F)(F)COCC1CO1 [((2,2,3,3-Tetrafluoropropoxy)methyl)oxirane]
Description: as §1

Perfluoropentanoic acid = compound: O=C(O)C(F)(F)C(F)(F)C(F)(F)C(F)(F)F [Perfluoropentanoic acid]
Description: as §1

[3] = compound: O=C(O)C(F)(F)OC(F)(F)C(F)(F)OC(F)(F)F [Perfluoro-3,6-dioxaheptanoic acid]
Description: as §1

[4] = compound: FC(F)(F)C(F)(F)C(F)(F)C(F)(F)C(F)(F)C(F)(F)C(F)(F)C(F)(F)CCS [2-(Perfluorooctyl)ethanthiol]
Description: as §1

[5] = compound: O=C(O)C(F)(F)C(F)(F)OC(F)(F)F [Perfluoro-3-methoxypropanoic acid]
Description: as §1

Heptafluorobutyramide = compound: NC(=O)C(F)(F)C(F)(F)C(F)(F)F [Heptafluorobutyramide]
Description: as §1

Test System | level (log10) ([1]; 6700 nM) | level (log10) ([1]; 20000 nM) | level (log10) ([1]; 60000 nM) | level (log10) ([2]; 6700 nM) | level (log10) ([2]; 20000 nM) | level (log10) ([2]; 60000 nM) | level (log10) (Perfluoropentanoic acid; 6700 nM) | level (log10) (Perfluoropentanoic acid; 20000 nM) | level (log10) (Perfluoropentanoic acid; 60000 nM) | level (log10) ([3]; 6700 nM) | level (log10) ([3]; 20000 nM) | level (log10) ([3]; 60000 nM) | level (log10) ([4]; 6700 nM) | level (log10) ([4]; 20000 nM) | level (log10) ([5]; 6700 nM) | level (log10) ([5]; 20000 nM) | level (log10) ([5]; 60000 nM) | level (log10) (Heptafluorobutyramide; 6700 nM) | level (log10) (Heptafluorobutyramide; 20000 nM) | level (log10) (Heptafluorobutyramide; 60000 nM)
LPS:CD62E/E-Selectin | 0.019 ± 0.013 | -0.0035 ± 0.0092 | -0.003 ± 0.0028 | 0.012 ± 0.02 | 0.0055 ± 0.033 | 0.0145 ± 0.033 | 0.01 ± 0.0057 | -0.004 ± 0.0071 | 0.015 ± 0.018 | 0 ± 0.021 | -0.018 ± 0.05 | -0.006 ± 0.017 | 0.0275 ± 0.025 | 0.013 ± 0.011 | -0.0015 ± 0.011 | -0.0075 ± 0.005 | 0.0105 ± 0.0035 | -0.0065 ± 0.022 | -0.0195 ± 0.016 | -0.0365 ± 0.035
LPS:CD69 | -0.004 ± 0.0071 | 0.003 ± 0.017 | 0.0165 ± 0.022 | 0.0005 ± 0.022 | -0.003 ± 0.0014 | 0.012 ± 0.041 | 0.007 ± 0.011 | -0.0305 ± 0.013 | -0.0135 ± 0.083 | -0.0125 ± 0.0064 | -0.044 ± 0.035 | -0.0165 ± 0.019 | 0.019 ± 0.024 | 0.0125 ± 0.043 | -0.0065 ± 0.013 | -0.02 ± 0.013 | 0.013 ± 0.025 | 0.028 ± 0.076 | -0.0065 ± 0.056 | -0.009 ± 0.069
LPS:CD106/VCAM-1 | 0.011 ± 0.013 | -0.007 ± 0.0028 | -0.009 ± 0.021 | 0.0015 ± 0.036 | -0.024 ± 0.0071 | -0.032 ± 0.042 | 0.005 ± 0.013 | 0.004 ± 0.0057 | 0.0035 ± 0.023 | -0.0215 ± 0.023 | -0.007 ± 0.0085 | -0.0105 ± 0.005 | -0.007 ± 0.04 | -0.0225 ± 0.005 | 0.0065 ± 0.013 | -0.0065 ± 0.00071 | -0.01 ± 0.0028 | 0.0005 ± 0.005 | -0.0005 ± 0.012 | -0.0145 ± 0.029
LPS:CD141/Thrombomodulin | 0.0085 ± 0.019 | 0.0165 ± 0.0092 | 0.003 ± 0.027 | 0.0055 ± 0.016 | -0.003 ± 0.03 | -0.049 ± 0.013 | -0.0115 ± 0.047 | -0.045 ± 0.073 | -0.0085 ± 0.11 | -0.033 ± 0.081 | -0.018 ± 0.067 | -0.0165 ± 0.012 | 0.0055 ± 0.0064 | -0.0385 ± 0.028 | 0.0175 ± 0.036 | 0.0075 ± 0.022 | 0.0255 ± 0.028 | -0.018 ± 0.05 | -0.0175 ± 0.064 | -0.0175 ± 0.035
LPS:CD142/Tissue Factor | 0.034 ± 0.038 | 0.0025 ± 0.016 | 0.015 ± 0.061 | 0.013 ± 0.024 | 0.006 ± 0.0057 | -0.019 ± 0.023 | 0.006 ± 0.0099 | -0.007 ± 0.051 | 0.031 ± 0.099 | -0.0335 ± 0.011 | 0.0145 ± 0.023 | 0.009 ± 0.0028 | 0.0455 ± 0.081 | 0.097 ± 0.065 | 0.0095 ± 0.013 | 0.032 ± 0.021 | 0.0125 ± 0.073 | -0.0035 ± 0.028 | 0.002 ± 0.061 | -0.0245 ± 0.047
LPS:CXCL8/IL-8 | 0.015 | 0.0085 ± 0.021 | 0.0385 ± 0.021 | -0.035 ± 0.038 | -0.024 ± 0.031 | 0.004 ± 0.0014 | -0.0075 ± 0.00071 | -0.0095 ± 0.022 | 0.0245 ± 0.052 | 0.007 ± 0.028 | 0.0265 ± 0.0064 | 0.0505 ± 0.0078 | -0.0195 ± 0.035 | 0.0235 ± 0.053 | 0.0285 ± 0.035 | 0.018 ± 0.017 | 0.027 ± 0.0014 | -0.01 ± 0.038 | -0.0025 ± 0.032 | 0.0115 ± 0.0078
LPS:IL-1alpha | -0.032 ± 0.013 | -0.0125 ± 0.013 | 0.0195 ± 0.049 | -0.046 ± 0.0042 | -0.026 ± 0.021 | 0.022 ± 0.024 | -0.0005 ± 0.00071 | -0.0115 ± 0.012 | -0.021 ± 0.017 | -0.0605 ± 0.0035 | -0.0075 ± 0.0064 | -0.0055 ± 0.036 | -0.045 ± 0.0042 | -0.012 ± 0.055 | -0.025 ± 0.0071 | -0.0285 ± 0.0078 | 0.0005 ± 0.0021 | -0.014 ± 0.018 | -0.0125 ± 0.0035 | 0.013 ± 0.054
LPS:M-CSF | 0.0035 ± 0.005 | -0.002 ± 0.0028 | 0.021 | 0.0075 ± 0.011 | 0.009 ± 0.017 | -0.0155 ± 0.036 | -0.031 ± 0.024 | -0.061 ± 0.11 | -0.0385 ± 0.11 | -0.0505 ± 0.056 | -0.014 ± 0.055 | -0.0185 ± 0.057 | 0.0095 ± 0.0035 | -0.0035 ± 0.0092 | 0.001 ± 0.0085 | -0.0165 ± 0.00071 | 0.0235 ± 0.015 | -0.003 ± 0.016 | -0.006 ± 0.0014 | -0.006 ± 0.0057

Source: the supplement of paper PMC10331698
